The source made the active and inactive calls. The calls are words filed in the database; no cut-off is given here.
Columns and labels:
Plasmodium falciparum [1] = assay: Antimalarial activity against Plasmodium falciparum 3D7; format: functional, organism-based
[2] = Cmax in male Swiss mouse at 100 mg/kg, po by LC-MS/MS analysis; format: ADME, organism-based; conditions: in vivo
Plasmodium falciparum [3] = assay: Induction of morphological changes in asexual blood stage Plasmodium falciparum assessed as lack of prominent periphery in trophozoites at 1 uM incubated for 24 hrs by Geimsa-staining based light microscopic analysis; format: functional, organism-based
[4] = Half life in male Swiss mouse at 100 mg/kg, po by LC-MS/MS analysis; format: ADME, organism-based; conditions: in vivo
Plasmodium falciparum [5] = assay: Induction of morphological changes in asexual blood stage Plasmodium falciparum assessed as appearance of fragmentation at 1 uM incubated for 24 hrs by Geimsa-staining based light microscopic analysis; format: functional, organism-based
[6] = Resistance index, ratio of IC50 for antimalarial activity against […] infected in human erythrocytes to IC50 for antimalarial activity against chloroquine-sensitive Plasmodium falciparum 3D7 infected in erythrocytes; format: functional
Plasmodium falciparum [7] = assay: Induction of morphological changes in asexual blood stage Plasmodium falciparum assessed as appearance of schizonts at 1 uM incubated for 48 to 72 hrs by Geimsa-staining based light microscopic analysis; format: functional, organism-based; conditions: time 48-72 hrs
[8] = AUC in male Swiss mouse at 100 mg/kg, po by LC-MS/MS analysis; format: ADME, organism-based; conditions: in vivo
Plasmodium yoelii [9] = assay: Antimalarial activity against Plasmodium yoelii N67 infected in female Swiss mouse model assessed as inhibition of parasitic growth at 100 mg/kg, po measured on day 10 relative to control; format: functional; design: scale not given: the % may be the effect or the level left; conditions: time 10 day
Plasmodium yoelii [10] = assay: Antimalarial activity against Plasmodium yoelii N67 infected in female Swiss mouse model assessed as mean survival time at 100 mg/kg, po measured on day 17 relative to control; format: functional; conditions: N67, 408 h, time 17 day
[11] = Stability of the compound in simulated intestinal fluid at pH 6.8 assessed as compound remaining measured after 120 mins by HPLC analysis relative to control; format: physicochemical; conditions: read-out: Stability
Plasmodium yoelii [12] = assay: Antimalarial activity against Plasmodium yoelii N67 infected in female Swiss mouse model assessed as mean survival time at 100 mg/kg, po measured on day 24 relative to control; format: functional; conditions: N67, 576 h, time 24 day
Plasmodium falciparum [13] = assay: Induction of morphological changes in asexual blood stage Plasmodium falciparum assessed as appearance of healthy rings at 1 uM incubated for 48 to 72 hrs by Geimsa-staining based light microscopic analysis; format: functional, organism-based; conditions: time 48-72 hrs
[14] = Clearance in male Swiss mouse at 100 mg/kg, po by LC-MS/MS analysis; format: ADME, organism-based; conditions: in vivo
Plasmodium falciparum [15] = assay: Antimalarial activity against chloroquine-sensitive Plasmodium falciparum 3D7 infected in human erythrocytes assessed as reduction in parasite growth incubated for 72 hrs by SYBR green dye fluorimetric assay; format: functional, organism-based; conditions: 3D7, Erythrocyte
[16] = Cytotoxicity against human HepG2 cells; format: toxicity, cell-based
Plasmodium yoelii [17] = assay: Antimalarial activity against Plasmodium yoelii N67 infected in female Swiss mouse model assessed as inhibition of parasitic growth at 100 mg/kg, po measured on day 7 relative to control; format: functional; design: scale not given: the % may be the effect or the level left; conditions: time 7 day
[18] = Selectivity index, ratio of CC50 for cytotoxicity against human HepG2 cells to IC50 for antimalarial activity against chloroquine-sensitive Plasmodium falciparum 3D7 infected in human erythrocytes assessed as reduction in parasite growth incubated for 72 hrs by SYBR green dye fluorimetric assay; format: toxicity, cell-based; conditions: read-out: Ratio CC50/IC50
[19] = Stability of the compound in simulated physiological fluid at pH 7.4 assessed as compound remaining measured after 120 mins by HPLC analysis relative to control; format: physicochemical; conditions: read-out: Stability
Plasmodium falciparum [20] = assay: Antimalarial activity against […] infected in human erythrocytes assessed as reduction in parasite growth incubated for 72 hrs by SYBR green dye fluorimetric assay; format: functional, organism-based; conditions: K1, Erythrocyte
Plasmodium falciparum [21] = assay: Antimalarial activity against […] infected in human erythrocytes assessed as inhibition of parasitic growth at 5 uM incubated for 72 hrs by SYBR green dye fluorimetric assay relative to control; format: functional, K1, Erythrocyte; design: scale not given: the % may be the effect or the level left
[22] = MRT in male Swiss mouse at 100 mg/kg, po by LC-MS/MS analysis; format: ADME, organism-based; conditions: in vivo
[23] = Stability of the compound in mouse plasma assessed as compound remaining measured after 120 mins by HPLC analysis relative to control; format: ADME, cell-free; conditions: read-out: Stability
Plasmodium yoelii [24] = assay: Antimalarial activity against Plasmodium yoelii N67 infected in female Swiss mouse model assessed as mean survival time at 100 mg/kg administered orally (reference value: 11 days); format: functional; conditions: route po
Plasmodium yoelii [25] = assay: Antimalarial activity against Plasmodium yoelii N67 infected in female Swiss mouse model assessed as reduction in parasitic growth at 100 mg/kg, po administered for 3 days and measured on day 28 by Giemsa staining based analysis; format: functional, organism-based; conditions: time 28.0 day
[26] = Tmax in male Swiss mouse at 100 mg/kg, po by LC-MS/MS analysis; format: ADME, organism-based; conditions: in vivo
Plasmodium falciparum [27] = assay: Induction of morphological changes in asexual blood stage Plasmodium falciparum assessed as appearance of compact structure at 1 uM incubated for 24 hrs by Geimsa-staining based light microscopic analysis; format: functional, organism-based
Plasmodium berghei = assay: Antimalarial activity against GFP-luciferase expressing liver stage Plasmodium berghei sporozoites infected in human HepG2 cells assessed as inhibition of parasitic growth by luminescence based analysis; format: functional, organism-based
Plasmodium falciparum [28] = assay: Induction of morphological changes in asexual blood stage Plasmodium falciparum assessed as appearance of condensed cytoplasm at 1 uM incubated for 24 hrs by Geimsa-staining based light microscopic analysis; format: functional, organism-based
Plasmodium yoelii [29] = assay: Antimalarial activity against Plasmodium yoelii N67 infected in female Swiss mouse model assessed as inhibition of parasitic growth at 100 mg/kg, po administered for 4 days and measured on day 28 by Giemsa staining based analysis; format: functional, organism-based; conditions: time 4.0 day
[30] = Volume of distribution in male Swiss mouse at 100 mg/kg, po by LC-MS/MS analysis; format: ADME, organism-based; conditions: in vivo
Plasmodium falciparum [31] = assay: Antimalarial activity against Plasmodium falciparum W2; format: functional, organism-based

Clc1ccc(-n2cc(-c3cncc4ccccc34)nn2)cc1
IC50 (Plasmodium falciparum [1]): 36.9 µM

O=C(NCc1cn(-c2cccc(C(F)(F)F)c2)nn1)c1cc2c([nH]c3ccccc32)c(-c2ccc(F)cc2)n1
Cmax [2]: 15.17 ng/mL
Activity (Plasmodium falciparum [3]): Active; Irreversible Structural Deformations Observed
t1/2 [4]: 3.74 h
Activity (Plasmodium falciparum [5]): Active; Irreversible Structural Deformations Observed
Ratio IC50 [6]: 0.48
Activity (Plasmodium falciparum [7]): inactive
AUC [8]: 112 µg·h/mL
Activity (Plasmodium yoelii [9]): 35.93%
survival at 100 mg/kg (Plasmodium yoelii [10]): 60%
remaining at 2 h [11]: ≥ 60%
survival at 100 mg/kg (Plasmodium yoelii [12]): 20%
Activity (Plasmodium falciparum [13]): inactive
CL [14]: 15.324 mL/min/kg
IC50 (Plasmodium falciparum [15]): 0.84 µM
CC50 [16]: 195 µM
Activity (Plasmodium yoelii [17]): 42.55%
selectivity ratio at 72 h [18]: 232
remaining at 2 h [19]: ≥ 60%
IC50 (Plasmodium falciparum [20]): 0.4 µM
Activity (Plasmodium falciparum [21]): 95.63%
MRT [22]: 7.3 h
remaining at 2 h [23]: ≥ 60%
MST (Plasmodium yoelii [24]): 17 days
Activity (Plasmodium yoelii [25]): Active
Tmax [26]: 4 h
Activity (Plasmodium falciparum [27]): Active; Irreversible Structural Deformations Observed
IC50 (Plasmodium berghei): 5.88 µM
Activity (Plasmodium falciparum [28]): Active; Irreversible Structural Deformations Observed
Activity (Plasmodium yoelii [29]): Moderate_effect
Vd [30]: 4.97207 L/kg

COc1cc(-c2nccc3c2[nH]c2ccccc23)cc(OC)c1OC
IC50 (Plasmodium falciparum [31]): 0.51 µM
